The values below come from ChEMBL document CHEMBL4334544, “BRM Targeting Compounds for the Potential Treatment of Cancer” (ACS Med Chem Lett, 2020).

Assay [1] has as its target T1, Protein cereblon/SWI/SNF-related matrix-associated actin-dependent regulator of chromatin subfamily A member 2 (Homo sapiens, UniProt P51531+Q96SW2). Kind of assay: Protac activity at E3 ubiquitin ligase/BRM in human SW1573 cells assessed as E3 ubiquitin ligase-mediated BRM degradation incubated for 18 to 20 hrs by Western blot analysis. The class given is cell-based.

Assay [2] addresses T1, Protein cereblon/SWI/SNF-related matrix-associated actin-dependent regulator of chromatin subfamily A member 2. Kind of assay: Protac activity at E3 ubiquitin ligase/BRM in human SW1573 cells assessed as E3 ubiquitin ligase-mediated BRM degradation at 0.3 to 10 uM incubated for 18 to 20 hrs by Western blot analysis relative to control. The class given is cell-based.
Assay [3] concerns the target T2, von Hippel-Lindau disease tumor suppressor/SWI/SNF-related matrix-associated actin-dependent regulator of chromatin subfamily A member 4 (Homo sapiens, UniProt P51532+P40337). Kind of assay: Protac activity at E3 ubiquitin ligase/BRG1 (unknown origin) assessed as E3 ubiquitin ligase mediated BRG1 degradation.
Target sequence in this assay (P51532 whole entry): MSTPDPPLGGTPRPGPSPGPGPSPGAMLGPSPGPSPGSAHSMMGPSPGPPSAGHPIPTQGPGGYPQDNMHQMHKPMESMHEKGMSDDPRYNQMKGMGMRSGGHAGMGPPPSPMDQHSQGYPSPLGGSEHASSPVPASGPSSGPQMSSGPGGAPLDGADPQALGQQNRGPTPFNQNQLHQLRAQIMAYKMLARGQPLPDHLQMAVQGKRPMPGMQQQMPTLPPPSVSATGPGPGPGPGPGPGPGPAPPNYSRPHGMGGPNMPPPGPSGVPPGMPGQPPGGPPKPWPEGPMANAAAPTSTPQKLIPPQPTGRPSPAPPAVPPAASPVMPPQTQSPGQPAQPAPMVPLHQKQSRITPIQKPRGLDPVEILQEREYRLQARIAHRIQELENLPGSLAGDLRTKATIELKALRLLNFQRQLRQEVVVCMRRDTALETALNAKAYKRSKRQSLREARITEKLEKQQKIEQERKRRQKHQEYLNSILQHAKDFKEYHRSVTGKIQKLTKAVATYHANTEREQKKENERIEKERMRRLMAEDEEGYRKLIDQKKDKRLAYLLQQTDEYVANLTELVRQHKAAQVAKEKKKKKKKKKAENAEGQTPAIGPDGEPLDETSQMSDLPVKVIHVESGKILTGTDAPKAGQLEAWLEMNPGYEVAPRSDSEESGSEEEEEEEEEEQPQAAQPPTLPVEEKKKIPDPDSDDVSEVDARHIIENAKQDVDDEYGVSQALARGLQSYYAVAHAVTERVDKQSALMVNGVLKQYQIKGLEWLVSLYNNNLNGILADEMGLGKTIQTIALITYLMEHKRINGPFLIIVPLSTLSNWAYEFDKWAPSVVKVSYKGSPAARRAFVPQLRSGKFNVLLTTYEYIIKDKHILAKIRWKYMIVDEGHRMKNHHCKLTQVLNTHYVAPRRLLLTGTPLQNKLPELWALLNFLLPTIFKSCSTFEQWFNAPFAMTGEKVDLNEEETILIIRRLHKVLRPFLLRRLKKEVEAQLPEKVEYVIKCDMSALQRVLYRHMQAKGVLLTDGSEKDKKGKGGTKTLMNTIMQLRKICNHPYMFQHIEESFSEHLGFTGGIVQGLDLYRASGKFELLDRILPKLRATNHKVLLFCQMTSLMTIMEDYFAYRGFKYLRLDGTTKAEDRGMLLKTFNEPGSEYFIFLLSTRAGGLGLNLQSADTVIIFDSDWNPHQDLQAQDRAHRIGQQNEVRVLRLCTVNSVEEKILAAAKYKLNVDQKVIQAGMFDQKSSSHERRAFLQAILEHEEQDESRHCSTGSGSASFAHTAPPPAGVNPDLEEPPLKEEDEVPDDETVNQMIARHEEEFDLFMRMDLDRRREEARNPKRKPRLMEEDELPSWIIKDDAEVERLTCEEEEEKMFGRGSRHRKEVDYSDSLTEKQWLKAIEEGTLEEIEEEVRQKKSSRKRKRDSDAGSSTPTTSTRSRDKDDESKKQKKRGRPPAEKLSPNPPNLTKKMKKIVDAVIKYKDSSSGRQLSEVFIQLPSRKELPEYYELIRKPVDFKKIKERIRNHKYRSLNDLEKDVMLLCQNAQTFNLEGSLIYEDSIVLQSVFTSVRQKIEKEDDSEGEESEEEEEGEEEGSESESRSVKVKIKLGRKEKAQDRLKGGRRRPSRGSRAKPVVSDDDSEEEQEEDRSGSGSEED
Target sequence in this assay (P40337 whole entry): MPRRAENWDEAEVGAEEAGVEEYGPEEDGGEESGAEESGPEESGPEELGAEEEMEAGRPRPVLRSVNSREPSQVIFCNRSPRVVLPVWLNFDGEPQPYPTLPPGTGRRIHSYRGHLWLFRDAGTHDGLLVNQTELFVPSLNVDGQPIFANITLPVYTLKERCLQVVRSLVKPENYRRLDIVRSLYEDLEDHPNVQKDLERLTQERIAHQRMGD
Assay [4] concerns the target T2, von Hippel-Lindau disease tumor suppressor/SWI/SNF-related matrix-associated actin-dependent regulator of chromatin subfamily A member 4. Kind of assay: Protac activity at E3 ubiquitin ligase/BRG1 (unknown origin) assessed as E3 ubiquitin ligase mediated BRG1 degradation at 0.3 to 10 uM relative to control.
Target sequence in this assay (P40337 whole entry, looked up): as the sequence (P40337 whole entry) above
Target sequence in this assay (P51532 whole entry, looked up): as the sequence (P51532 whole entry) above

T1 sequence (P51531 whole entry): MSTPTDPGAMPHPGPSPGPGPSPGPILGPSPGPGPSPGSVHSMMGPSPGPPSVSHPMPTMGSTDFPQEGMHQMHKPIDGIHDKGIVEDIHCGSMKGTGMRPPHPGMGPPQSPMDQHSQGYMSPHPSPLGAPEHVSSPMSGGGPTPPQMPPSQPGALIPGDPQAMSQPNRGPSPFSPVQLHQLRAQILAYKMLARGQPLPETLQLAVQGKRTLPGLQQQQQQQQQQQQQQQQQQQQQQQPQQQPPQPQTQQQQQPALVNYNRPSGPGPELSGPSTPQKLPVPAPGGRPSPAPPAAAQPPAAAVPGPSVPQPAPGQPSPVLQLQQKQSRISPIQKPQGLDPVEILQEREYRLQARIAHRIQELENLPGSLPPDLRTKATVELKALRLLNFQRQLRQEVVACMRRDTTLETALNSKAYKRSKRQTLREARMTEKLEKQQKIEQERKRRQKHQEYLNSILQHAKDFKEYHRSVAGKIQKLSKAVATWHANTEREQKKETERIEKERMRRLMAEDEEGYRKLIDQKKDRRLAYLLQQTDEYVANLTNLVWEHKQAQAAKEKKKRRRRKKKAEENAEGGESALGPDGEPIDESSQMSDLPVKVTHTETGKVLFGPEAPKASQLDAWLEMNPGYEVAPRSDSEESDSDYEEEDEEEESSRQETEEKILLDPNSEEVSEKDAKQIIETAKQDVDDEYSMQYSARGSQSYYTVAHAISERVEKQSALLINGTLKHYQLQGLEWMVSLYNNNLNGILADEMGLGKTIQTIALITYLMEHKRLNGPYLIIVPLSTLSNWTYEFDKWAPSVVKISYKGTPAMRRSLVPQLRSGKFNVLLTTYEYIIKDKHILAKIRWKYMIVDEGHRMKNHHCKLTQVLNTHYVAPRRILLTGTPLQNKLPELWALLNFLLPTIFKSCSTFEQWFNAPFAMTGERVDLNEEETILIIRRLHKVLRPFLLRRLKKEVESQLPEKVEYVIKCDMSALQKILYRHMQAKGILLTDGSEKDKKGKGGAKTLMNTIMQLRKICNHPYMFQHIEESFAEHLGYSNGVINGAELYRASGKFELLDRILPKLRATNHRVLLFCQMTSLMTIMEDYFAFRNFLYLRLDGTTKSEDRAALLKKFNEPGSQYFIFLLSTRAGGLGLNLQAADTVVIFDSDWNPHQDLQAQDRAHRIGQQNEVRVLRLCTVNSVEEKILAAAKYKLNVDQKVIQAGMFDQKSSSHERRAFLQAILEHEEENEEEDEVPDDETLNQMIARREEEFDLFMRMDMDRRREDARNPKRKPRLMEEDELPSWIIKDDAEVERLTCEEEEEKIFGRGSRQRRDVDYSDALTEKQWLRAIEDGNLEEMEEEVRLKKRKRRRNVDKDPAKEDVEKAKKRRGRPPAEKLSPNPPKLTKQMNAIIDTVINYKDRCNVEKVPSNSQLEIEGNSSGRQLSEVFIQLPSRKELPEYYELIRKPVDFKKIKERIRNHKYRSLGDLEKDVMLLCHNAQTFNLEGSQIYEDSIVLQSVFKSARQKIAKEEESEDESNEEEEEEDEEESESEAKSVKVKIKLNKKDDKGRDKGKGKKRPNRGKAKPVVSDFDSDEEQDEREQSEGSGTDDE
T1 sequence (Q96SW2 whole entry): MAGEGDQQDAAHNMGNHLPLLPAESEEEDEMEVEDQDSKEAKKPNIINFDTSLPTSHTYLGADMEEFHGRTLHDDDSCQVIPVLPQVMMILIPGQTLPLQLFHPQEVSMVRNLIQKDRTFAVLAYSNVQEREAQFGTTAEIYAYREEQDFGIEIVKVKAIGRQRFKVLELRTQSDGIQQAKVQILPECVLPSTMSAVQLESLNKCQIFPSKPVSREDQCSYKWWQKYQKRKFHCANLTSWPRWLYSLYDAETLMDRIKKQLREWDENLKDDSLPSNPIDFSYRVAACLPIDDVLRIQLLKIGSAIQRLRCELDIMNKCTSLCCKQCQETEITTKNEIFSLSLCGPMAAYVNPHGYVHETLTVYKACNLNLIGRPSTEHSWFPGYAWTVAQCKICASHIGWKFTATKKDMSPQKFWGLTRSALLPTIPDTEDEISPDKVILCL

For `Cc1ncsc1-c1ccc([C@H](C)NC(=O)[C@@H]2C[C@@H](O)CN2C(=O)[C@@H](c2cc(OCCN3CCC(OC4CN(c5cc(N6C7CCC6CN(c6cc(-c8ccccc8O)nnc6N)C7)ccn5)C4)CC3)no2)C(C)C)cc1`, the DC50 was < 2.5 nM in assay [1] and 2.5 to 10 nM in assay [3]. For the same molecule, the %max in assay [2] and in assay [4] was > 75% throughout.
Consider `Cc1ncsc1-c1ccc([C@H](C)NC(=O)[C@@H]2C[C@@H](O)CN2C(=O)[C@@H](c2cc(OC3CN(CCN4CCC(O[C@H]5C[C@H](Oc6cc(N7C8CCC7CN(c7cc(-c9ccccc9O)nnc7N)C8)ccn6)C5)CC4)C3)no2)C(C)C)cc1`, for which the DC50 in assay [1] is < 2.5 nM; in assay [3] it was 2.5 to 10 nM. Further, the %max in assay [2] and in assay [4] was > 75% each time.
Turning to `Cc1ncsc1-c1ccc([C@H](C)NC(=O)[C@@H]2C[C@@H](O)CN2C(=O)[C@@H](c2cc(C#CCN3CCC(O[C@H]4C[C@H](Oc5cc(N6C7CCC6CN(c6cc(-c8ccccc8O)nnc6N)C7)ccn5)C4)CC3)no2)C(C)C)cc1`, the DC50 in assay [1] was < 2.5 nM; in assay [3], 2.5 to 10 nM. For the same molecule, the %max in assay [2] and in assay [4] was > 75% throughout.
As for `Cc1ncsc1-c1ccc([C@H](C)NC(=O)[C@@H]2C[C@@H](O)CN2C(=O)[C@@H](c2cc(OCCCCN3CCN(CCCCOc4cc(N5C6CCC5CN(c5cc(-c7ccccc7O)nnc5N)C6)ccn4)CC3)no2)C(C)C)cc1`, the DC50 in assay [1] and in assay [3] was < 2.5 nM throughout. Moreover, the %max in assay [2] and in assay [4] was > 75% throughout.
`Cc1ncsc1-c1ccc([C@H](C)NC(=O)[C@@H]2C[C@@H](O)CN2C(=O)[C@@H](c2cc(OCCOCCOc3cc(N4C5CCC4CN(c4cc(-c6ccccc6O)nnc4N)C5)ccn3)no2)C(C)C)cc1`: the DC50 in assay [1] and in assay [3] was < 2.5 nM each time. The %max in assay [2] and in assay [4] was > 75% each time.
With `Cc1ncsc1-c1ccc([C@H](C)NC(=O)[C@@H]2C[C@@H](O)CN2C(=O)[C@@H](c2cc(N3CCC(O[C@H]4C[C@H](Oc5cc(N6C7CCC6CN(c6cc(-c8ccccc8O)nnc6N)C7)ccn5)C4)CC3)no2)C(C)C)cc1`, the half-maximal degradation concentration (DC50) in assay [1] and in assay [3] was < 2.5 nM throughout. Further, the %max in assay [2] and in assay [4] was > 75% in each case.
